These results are taken from patent publication US9593149B2, “Amylin and calcitonin receptor agonist” (Novo Nordisk A/S, priority 2014, dated 2017).

In data set [1] the target is T1, human amylin 3(a) receptor (human calcitonin receptor + RAMP-3), BHK570 cells (Homo sapiens, UniProt O60896+P30988).
T1 construct: host or cells: BHK570
Put plainly: Assay (II)b functional CRE-luciferase assay without albumin, human amylin receptor. Type of data set: cell-based. To be noted: Tested without HSA; read-out: hAmylin-R funct. EC50. Summed up: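 Agonism measured as CRE-driven luciferase luminescence after 3 h sample exposure at 37 °C, without albumin (0.1% ovalbumin, Hepes pH 7.4 medium). Reporter cells: BHK570 carrying human calcitonin receptor, co-transfected with RAMP-3 to form the amylin 3(a) receptor.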

Data set [2] concerns the target T2, human calcitonin (a) receptor, BHK570 cells (Homo sapiens, UniProt P30988).
T2 construct: host or cells: BHK570
T2 sequence (P30988 25-474): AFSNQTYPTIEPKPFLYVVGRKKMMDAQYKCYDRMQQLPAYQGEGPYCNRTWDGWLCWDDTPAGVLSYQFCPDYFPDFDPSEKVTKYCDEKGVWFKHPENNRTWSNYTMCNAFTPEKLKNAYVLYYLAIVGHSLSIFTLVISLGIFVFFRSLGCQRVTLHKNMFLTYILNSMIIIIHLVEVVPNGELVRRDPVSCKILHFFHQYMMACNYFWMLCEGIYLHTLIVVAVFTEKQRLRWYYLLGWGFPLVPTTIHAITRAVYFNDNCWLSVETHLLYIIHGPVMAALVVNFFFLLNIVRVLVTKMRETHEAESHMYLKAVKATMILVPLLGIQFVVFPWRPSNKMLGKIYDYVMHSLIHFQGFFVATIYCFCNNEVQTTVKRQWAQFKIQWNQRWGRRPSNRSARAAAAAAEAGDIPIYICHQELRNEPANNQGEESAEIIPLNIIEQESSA
The data set can be described thus: Assay (II)b functional CRE-luciferase assay without albumin, human calcitonin receptor. In kind it is cell-based. The settings on record: Tested without HSA; read-out: hCTR funct. EC50. Summed up:
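BHK570 cells stably expressing human calcitonin receptor with CRE-luciferase reporter, plus RAMP-3 for the amylin 3(a) line. Cells stimulated 3 hours at 37 °C in albumin-free assay medium (0.1% ovalbumin, 10 mM Hepes pH 7.4); cAMP-driven luciferase read by luminescence.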

Data set [3] is described as follows: Assay (IV) determination of solubility. In kind it is physicochemical. As for the experimental part: Assay (IV)—Determination of Solubility
The mimylin peptide was dissolved in water at ˜500 nmol/ml and mixed 1:1 with a series of buffers (100 mM glycylglycine pH 3.0, 100 mM glycylglycine pH 4.0, 100 mM glycylglycine pH 5.0, 100 mM bistrispropane pH 6.0, 100 mM bistrispropane pH 6.5, 100 mM bistrispropane pH 7.0, 100 mM bistrispropane pH 7.5, 100 mM bistrispropane pH 8.0).

Data set [4] has as its target T3, human amylin receptor (human calcitonin receptor + human RAMP3), BHK tk'ts 13 cells (Homo sapiens, UniProt O60896+P30988).
T3 construct: expressed in transfected cells; host or cells: BHK tk'ts 13
The data set can be described thus: Assay (Va) binding to the human amylin receptor (whole cell). To be noted: read-out: hAmylin-R binding IC50. As for the experimental part:
The day before the assay the cells were Seeded into Poly-D-Lysin coated 384W Opaque White, BD BioCoat plates (10000 cells/well) and Incubated overnight at 37° C., 5% CO2, 95% humidity.

The target in data set [5] is T4, human calcitonin receptor, BHK tk'ts 13 cells (Homo sapiens, UniProt P30988).
T4 construct: expressed in transfected cells; host or cells: BHK tk'ts 13
T4 sequence (P30988 25-474): T2 sequence (P30988 25-474)
Put plainly: Assay (VIIa) binding to the human calcitonin receptor (whole cell). The settings on record: read-out: hCT-R binding IC50. As for the experimental part: Assay (VIIa)—Determination of Binding to the Human Calcitonin Receptor (Whole Cell Binding)
The binding assay was performed using a BHK tk'ts 13 cell line was stably transfected with the human calcitonin receptor, and a CRE-responsive luciferase reporter gene.
The day before the assay the cells were Seeded into Poly-D-Lysin coated 384W Opaque White, BD BioCoat plates (10000 cells/well) and Incubated overnight at 37° C., 5% CO2, 95% humidity. Then, the cells were washed in HBSS (4° C.), and incubated overnight at 4° C. in a binding buffer containing test compounds, 50 pM [125I]-human calcitonin, media w/o phenol red, 500 ml 0.1% ovalbumin (5 ml 10% ovalbumin) 10 mM Hepes (5 ml 1M) 1× Glutamin (5 ml 100×) 1% P/S (5 ml 100%) Complete (1 tablet/50 ml) 0.1% Pluronic F68®. The morning after, the plates were washed three times in HBSS (4° C.), and lyzed in Lysis buffer (0.1 M NaOH), 1% SDS. Scintillation cocktail (MicroScint40®) was added and the plates were shaken at 500 rpm for a short period. The plate was incubated at room temperature in the dark for 1 hour and Read on a TopCounter™ (Packard). The IC50 was calculated using (one site binding competition analysis) GraphPad Prism5 as a measure of receptor affinity. Assay (VIII)—Determination of Binding to the Rat Calcitonin Receptor

Data set [6] deals with T1, human amylin 3(a) receptor (human calcitonin receptor + RAMP-3), BHK570 cells. The data set can be described thus: Assay (II)a functional CRE-luciferase assay with albumin, human amylin receptor. In kind it is cell-based. The settings on record: Tested with HSA; read-out: hAmylin-R funct. EC50. The method, boiled down:
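BHK570 cells stably carry a CRE-luciferase reporter and the calcitonin receptor; co-transfected RAMP-3 gives the amylin 3(a) receptor line. Cells were treated for 3 h at 37 °C in DMEM with 10% FBS and 10 mM Hepes, pH 7.4. cAMP-driven luciferase was read by LucLite luminescence after 30 min at RT.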

Molecules are shown by their SMILES. Values after ≈ are worked out from the molar mass of the structure shown. Numbered stars: 1 amine (or outer) side, 2 acyl side, 3 side chain; on linkers, the order of the positions; unused ones are H or OH. Peptide text beside a SMILES is read from it. * marks the point of attachment. C18 diacid = O=C(O)CCCCCCCCCCCCCCCCC(=O)*; γGlu = O=C(O)[C@H](CCC(=O)[*:2])N[*:1]

T1 sequence (O60896 24-148, one chain of several): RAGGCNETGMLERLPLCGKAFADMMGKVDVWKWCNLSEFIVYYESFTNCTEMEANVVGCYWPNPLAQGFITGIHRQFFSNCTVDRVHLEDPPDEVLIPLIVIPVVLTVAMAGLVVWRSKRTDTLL
T3 sequence (O60896 24-148, one chain of several): as above

The EC50 is the midpoint of the concentration-response curve. The term solubility denotes the concentration that dissolves in the medium under given conditions. What is called IC50 is the concentration that inhibits the measured activity by half. As to `CC[C@H](C)[C@H](NC(=O)[C@H](C)NC(=O)[C@@H](NC(=O)[C@H](CO)NC(=O)[C@@H](NC(=O)[C@H](CCC(=O)O)NC(=O)[C@H](CO)NC(=O)[C@H](C)NC(=O)[C@H](CCC(=O)O)NC(=O)CCCCCCCCCCCCCCCCC(=O)O)[C@@H](C)CC)[C@@H](C)O)C(=O)N[C@@H](CC(C)C)C(=O)NCC(=O)N[C@@H](CCCNC(=N)N)C(=O)N[C@@H](CC(C)C)C(=O)N[C@@H](CO)C(=O)N[C@@H](C)C(=O)N[C@@H](CCC(=O)O)C(=O)N[C@@H](CC(C)C)C(=O)N[C@@H](Cc1c[nH]cn1)C(=O)N[C@@H](CCC(=O)O)C(=O)N[C@@H](CC(C)C)C(=O)N[C@@H](C)C(=O)N[C@H](C(=O)N[C@@H](CC(C)C)C(=O)N1CCC[C@H]1C(=O)N[C@@H](CCCNC(=N)N)C(=O)N[C@H](C(=O)N[C@@H](CCC(=O)O)C(=O)N[C@H](C(=O)NCC(=O)N1CCC[C@H]1C(=O)N[C@@H](CCC(=O)O)C(=O)N[C@@H](CO)C(=O)N1CCC[C@H]1C(N)=O)[C@@H](C)O)[C@@H](C)O)[C@@H](C)O` [compound 25, [N-terminal(C18 diacid), 5I, 9I]mimylin], the figures for the concentration for a half-maximal effect (EC50) in data set [1] and in data set [2] were 0.01 nM and 0.007 nM, respectively. The solubility at 18 h in data set [3] (bistrispropane buffer, pH 6.5) is no less than 200 µM; in data set [3] (bistrispropane buffer, pH 7.5), no less than 200 µM; in data set [3] (bistrispropane buffer, pH 6.0), no less than 200 µM; in data set [3] (bistrispropane buffer, pH 7.0), no less than 200 µM; in data set [3] (bistrispropane buffer, pH 8.0) it was no less than 200 µM; in data set [3] (glycylglycine buffer, pH 3.0) it was no less than 200 µM. In addition, the solubility at 18 h in data set [3] (glycylglycine buffer, pH 4.0) is 218 µM (≈ 822 µg/mL); in data set [3] (glycylglycine buffer, pH 5.0), no less than 200 µM. Besides, the IC50 in data set [4] turned out to be 0.4 nM; in data set [5], 0.413 nM.
As to `CC(C)C[C@H](NC(=O)[C@H](CCC(=O)O)NC(=O)[C@H](Cc1c[nH]cn1)NC(=O)[C@H](CC(C)C)NC(=O)[C@H](CCC(=O)O)NC(=O)[C@H](C)NC(=O)[C@H](CO)NC(=O)[C@H](CC(C)C)NC(=O)[C@H](CCCNC(=N)N)NC(=O)CNC(=O)[C@H](CC(C)C)NC(=O)[C@@H](NC(=O)[C@H](C)NC(=O)[C@@H](NC(=O)[C@@H](NC(=O)[C@H](CC(C)C)NC(=O)[C@H](CCC(=O)O)NC(=O)[C@H](CO)NC(=O)[C@H](C)NC(=O)CC[C@H](NC(=O)CCCCCCCCCCCCCCCCC(=O)O)C(=O)O)[C@@H](C)O)[C@@H](C)O)C(C)C)C(=O)N[C@@H](C)C(=O)N[C@H](C(=O)N[C@@H](CC(C)C)C(=O)N1CCC[C@H]1C(=O)N[C@@H](CCCNC(=N)N)C(=O)N[C@H](C(=O)N[C@@H](CCC(=O)O)C(=O)N[C@H](C(=O)NCC(=O)N[C@@H](CO)C(=O)NCC(=O)N[C@H](C(=O)N1CCC[C@H]1C(N)=O)[C@@H](C)O)[C@@H](C)O)[C@@H](C)O)[C@@H](C)O` [compound 94, [N-terminal(C18 diacid-gGlu), des1, 6T, 9V, 30S, 31G, 32T]mimylin] ({C18 diacid-γGlu}-ASELTTAVLGRLSAELHELATLPRTETGSGTP-NH2), the values for the half-maximal effective concentration (EC50) in data set [6], in data set [1] and in data set [2] were 0.03 nM, 0.042 nM and 0.03 nM, respectively. The solubility at 18 h in data set [3] (bistrispropane buffer, pH 6.5) was no less than 200 µM; in data set [3] (bistrispropane buffer, pH 7.5) it was no less than 200 µM; in data set [3] (bistrispropane buffer, pH 6.0), no less than 200 µM; in data set [3] (bistrispropane buffer, pH 7.0), no less than 200 µM; in data set [3] (bistrispropane buffer, pH 8.0) it was no less than 200 µM; in data set [3] (glycylglycine buffer, pH 3.0), no less than 200 µM. The solubility at 18 h in data set [3] (glycylglycine buffer, pH 4.0) was no less than 200 µM; in data set [3] (glycylglycine buffer, pH 5.0), no less than 200 µM. Besides, the IC50 in data set [4] stood at 0.652 nM; in data set [5], 0.651 nM.
